Assay results: article PMC8309108, “Rapid and Sensitive Quantification of Intracellular Glycyl-Sarcosine for Semi-High-Throughput Screening for Inhibitors of PEPT-1” (Pharmaceutics, 2021)
“Also recorded” adds a separate entry of the source. Non-standard residues stand in square brackets, D forms with d. Residues, ends and D or L forms follow the SMILES beside them. Sar = CNCC(=O)O

Tests used:
[1] = target: PEPT-1; conditions: read-out: reported Ki; cited from earlier work
[2] = target: T1, PEPT-1 (Homo sapiens, UniProt P46059); test: Inhibition of PEPT-1 mediated Gly-Sar uptake in Caco-2 cells (UPLC-MS/MS quantification of intracellular Gly-Sar); assay type: cell-based; conditions: for IC50: 7 d differentiation, 37 °C, pH = 6.0, three independent experiments; for Ki: converted from IC50 with the IC50-to-Ki tool, assuming competitive inhibition and a Km of 860 µM for Gly-Sar, read-out: calculated Ki
T1 construct: allowed to differentiate for at least 7 d to ensure sufficient PEPT-1 expression; host or cells: Caco-2
T1 sequence (P46059 1-708): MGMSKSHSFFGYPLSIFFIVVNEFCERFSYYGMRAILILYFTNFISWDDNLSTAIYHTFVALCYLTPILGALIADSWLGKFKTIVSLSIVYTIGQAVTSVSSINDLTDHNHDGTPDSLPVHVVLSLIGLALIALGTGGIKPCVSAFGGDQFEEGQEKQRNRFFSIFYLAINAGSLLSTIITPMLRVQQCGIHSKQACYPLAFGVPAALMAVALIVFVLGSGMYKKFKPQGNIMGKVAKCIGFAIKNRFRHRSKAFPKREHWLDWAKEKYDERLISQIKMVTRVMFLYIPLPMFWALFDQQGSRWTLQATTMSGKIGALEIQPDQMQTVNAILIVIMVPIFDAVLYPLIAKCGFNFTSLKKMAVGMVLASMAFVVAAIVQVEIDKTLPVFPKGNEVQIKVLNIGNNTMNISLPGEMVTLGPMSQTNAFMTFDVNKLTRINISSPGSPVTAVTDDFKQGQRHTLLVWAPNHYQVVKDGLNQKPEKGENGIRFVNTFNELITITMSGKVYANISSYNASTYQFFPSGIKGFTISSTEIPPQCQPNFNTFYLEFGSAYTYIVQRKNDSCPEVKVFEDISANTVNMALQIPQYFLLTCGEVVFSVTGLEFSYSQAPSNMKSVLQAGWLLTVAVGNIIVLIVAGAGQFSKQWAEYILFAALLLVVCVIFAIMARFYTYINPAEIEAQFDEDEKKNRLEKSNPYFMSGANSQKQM
Procedure: Caco-2 cells were cultivated in DMEM supplemented with 10% FBS, glutamine (2 mM), penicillin (100 U/mL), streptomycin (100 µg/mL), and 1% NEAS. They were kept at 37 °C and 5% CO2 and passaged once a week. For validation and uptake experiments, cells were seeded in 96-well plates at a density of 6.25 × 10^4 cells/cm^2 and allowed to differentiate for at least 7 d to ensure sufficient PEPT-1 expression. The uptake buffer (MES) was prepared as previously described by Sun et al. and contained 50 mM MES, 136.9 mM NaCl, 5.4 mM KCl, 1.26 mM CaCl2, 0.81 mM MgSO4 × 7 H2O, 0.5 mM Na2HPO4, 0.44 mM KH2PO4, 0.42 mM NaHCO3, and 5.54 mM glucose. The pH value of the uptake buffer was adjusted to pH = 6.0 using either HCl or NaOH solutions. Gly-Sar uptake was tested after 7, 24, and 28 d of Caco-2 cell differentiation. […] After an incubation period of 10 min at 37 °C under gentle agitation, transport was terminated by removing the solution and washing the cells with ice-cold MES buffer (100 µL/well) thrice while the plate was kept on ice. Afterwards, cells were lysed in the 96-well cell culture plate with aqueous NH4OH (10%, 50 µL/well) and sample preparation was performed as described below.
Sample preparation was performed directly in the 96-well cell culture plates. Cell lysates (50 µL) were spiked with 25 µL IS spike solution and, depending on the sample type, with either 5 µL of the respective calibration or QC solution (calibration and QC samples) or with 5 µL H2O/ACN (95/5, v/v) + 0.1% FA for volume compensation (study samples). Subsequently, all samples were filled with 180 µL ACN + 0.1% FA for protein precipitation and centrifuged for 10 min at 800 g. Finally, the 96-well plates were transferred into the Sample Manager for direct injection onto the UPLC-MS/MS system.
The quantification of Gly-Sar in cell homogenates was performed on a UPLC-MS/MS system consisting of a triple-stage quadrupole mass spectrometer (Waters Xevo TQ-XS with Z-spray ESI source) and an Acquity Classic UPLC® (Waters, Milford, MA, USA). Chromatographic separation was achieved on a Waters Cortecs UPLC® HILIC column (90 Å, 1.6 µm, 2.1 × 50 mm) heated to 60 °C with the injection volume set to 10 µL and a flow rate of 0.4 mL/min. The mobile phase consisted of H2O/ACN (95/5, v/v) + 0.1% FA (aqueous eluent; A) and ACN + 0.1% FA (ACN eluent; B). Gly-Sar was eluted with an isocratic composition of 16% A/84% B for 3 min. Subsequently, the conditions were changed to 50% A/50% B within 0.5 min and maintained for 0.5 min to flush the column. Afterwards, the initial ratio of 16% A and 84% B was restored during 0.5 min. The mass spectrometer was operated using an electrospray ionization (ESI) source in the positive ion detection mode. Quantification of Gly-Sar and IS was performed by selected reaction monitoring (SRM) using argon collision gas for collision-induced dissociation (CID). Mass spectrometric parameters were optimized for the detection of Gly-Sar and the IS using the auto-optimization feature IntelliStart of the MassLynx V4.2 system software (Waters, Milford, MA, USA).
Calibration curves were fitted by the Waters TargetLynx V4.2 software (Waters, Milford, MA, USA) using 1/x^2-weighted linear regressions of the peak area ratios of Gly-Sar and the IS. General calculations were performed using Microsoft Excel 2010 ([…]). IC50 values (i.e., the inhibitor concentration, which causes a baseline-normalized half-maximal Gly-Sar uptake) were calculated using the GraphPad Prism 9 software (version 9.1.0; GraphPad Software Inc., La Jolla, CA, USA). Intracellular Gly-Sar concentrations at varying inhibitor concentrations were fitted with nonlinear regression to a four-parameter concentration–response curve (4PL) according to the equation: […]

[3] = target: T1, PEPT-1; parameters: method as in PMID 22490229; conditions: cited from earlier work
[4] = Stability of Gly-Sar in processed cell lysate and spike solutions; assay type: physicochemical
Procedure: The assay to quantify Gly-Sar in cell homogenates was validated following the EMA and FDA guidelines on bioanalytical method validation. For this purpose, the linearity, accuracy, precision, selectivity, stability, recovery, and matrix effect of the assay were determined in three validation batches, which included eight calibration samples in duplicates and 24 QC samples at four concentrations (LLOQ, low, mid, and high QC) in sixfold determination. Accuracy (%) is the degree of agreement between the determined value and known true value and was subsequently determined by dividing the quantified mean concentration by the nominal concentration. Precision (% CV) describes the degree of agreement between individual measurements of the same analyte and was calculated by dividing the standard deviation by the quantified mean of the measurements. Chromatograms of blank cell lysate samples from six different cell passage numbers and of corresponding spiked samples were assessed for interfering signals at the retention time of Gly-Sar and IS to determine the selectivity of the method. […] Recovery was evaluated for low, mid, and high QC concentration of Gly-Sar by the comparison of peak areas of QC samples spiked after extraction with the respective peak areas of […] spiked after extraction. […] Gly-Sar integrity was further evaluated in the spike solutions. […]

[5] = Caco-2 cells, 20 µM Gly-Sar, 10 min

IC50 [2, 5] | Ki [2] | SMILES | Ki [1] | other results
 |  | CN(CC(=O)O)C(=O)CN [Gly-Sar, glycyl-sarcosine] (H-Gly-[Sar]-OH) |  | Km [3]: 860 µM; deviation of peak areas from the initial values ([4]; samples stored in the autosampler, over 24 h): < 15%; time stable in spike solutions ([4]; spike solutions in H2O/ACN (95/5, v/v) + 0.1% FA): at least 9 months; fraction of Gly-Sar uptake that is PEPT-1 mediated ([2]; Caco-2 cells, 10 min incubation): around 86%; ratio of bottom to top of the fitted sigmoidal curves (non-inhibited, non-PEPT-1 specific Gly-Sar uptake) ([2]; mean over all measured IC50 determinations, Caco-2 cells): 14.0 ± 6.7%
 |  | Nc1nc2c(ncn2COCCO)c(=O)[nH]1 [aciclovir] |  | inhibition of Gly-Sar uptake (in words) ([2]; Caco-2 cells, 20 µM Gly-Sar, 10 min, pH = 6.0, 0.1–5000 µM inhibitor): no inhibition; also recorded: did not interfere with Gly-Sar uptake; also recorded: did no inhibit the Gly-Sar uptake
45.1 ± 15.8 µM | 44 µM | CCCCc1nc(Cl)c(CO)n1Cc1ccc(-c2ccccc2-c2nn[nH]n2)cc1 [losartan] | 24 µM | 
894 ± 309 µM | 874 µM | CC(C)[C@H](N)C(=O)OCCOCn1cnc2c(=O)[nH]c(N)nc21 [valaciclovir] | 740 µM | 

SMILES | IC50 [2, 5] | Ki [2] | Ki [1] | other results
NCC(=O)N1CCC[C@H]1C(=O)O [Gly-Pro, glycyl-proline] (H-Gly-Pro-OH) | 257 ± 28 µM | 250 µM | 300 µM | 
